The results in this text go back to ChEMBL document CHEMBL3832074, “DailyMed|setid=ad6a2b73-29d4-4ced-ba42-4c2ad1c5a1af | ENTACAPONE - entacapone tablet, film coated|Sun Pharma Global FZE”.

Common to all, as to format: ADME, organism-based
Data set [1] deals with Homo sapiens. Briefly: Pharmcokinetic parameters for Enctacpone following oral administration of Entacapone. Particulars: in vivo, dosed compound id 40, dosed compound name ENTACAPONE; for Excretion: po.
The nature of data set [2]: (§1) Pharmacokinetic parameters for Enctacpone after single oral administartion of 200 and 800 mg Entacapone tablets to volunteers. Set-up: dose 200 mg, route oral. Particulars: human, in vivo, 200 mg, dosed compound id 40, dosed compound name ENTACAPONE, regimen Single dose, tissue Plasma.
The subject of data set [3] is Homo sapiens. The data set is described as §1. More on the design: dose 200 mg, route oral. Particulars: in vivo, dosed compound id 40, dosed compound name ENTACAPONE, gender male and female, regimen Single dose, route oral, tissue Plasma.

The term Cmax denotes the maximum level reached in the sampled fluid or tissue. A word on the Inhibition: it is the drop in the measured response relative to a control, in per cent. `CCN(CC)C(=O)/C(C#N)=C/c1cc(O)c(O)c([N+](=O)[O-])c1` [ENTACAPONE]: the CL in data set [1] (route iv, tissue Plasma) was found to be 850 mL/min. The Excretion in data set [1] (tissue Feces) came out at 90%; in data set [1] (tissue Urine) it was 10%. This molecule also registered a Cmax in data set [2] of 1.2 µg/mL. Besides, the Inhibition was determined as 65% in data set [3] (at 200 mg) and 82% in data set [3] (at 800 mg).
